Data as given in patent publication US8614327B2 (Vertex Pharmaceuticals Incorporated, priority 2004, dated 2013).

Biological target: T1, ΔF508-CFTR (Homo sapiens, UniProt P13569, DEL508-508)
T1 construct: expressed in transfected cells
Assay: Membrane potential optical (FRET/VIPR) assay, identification of potentiator compounds
Type: cell-based
Details: Table 3, assay not given; for % Activity: relative efficacy
In short: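 Double-addition potentiator screen: compound delivered in gluconate-substituted Cl^--free medium, membrane potential followed via CC2-DMPE/DiSBAC2(3) FRET on VIPR. Cells were ΔF508-CFTR-expressing NIH3T3 mouse fibroblasts, held 2 h at 37° C. then 24 h at 27° C. before assay.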

T1 sequence (P13569 with tags, fused parts or gaps DEL508-508): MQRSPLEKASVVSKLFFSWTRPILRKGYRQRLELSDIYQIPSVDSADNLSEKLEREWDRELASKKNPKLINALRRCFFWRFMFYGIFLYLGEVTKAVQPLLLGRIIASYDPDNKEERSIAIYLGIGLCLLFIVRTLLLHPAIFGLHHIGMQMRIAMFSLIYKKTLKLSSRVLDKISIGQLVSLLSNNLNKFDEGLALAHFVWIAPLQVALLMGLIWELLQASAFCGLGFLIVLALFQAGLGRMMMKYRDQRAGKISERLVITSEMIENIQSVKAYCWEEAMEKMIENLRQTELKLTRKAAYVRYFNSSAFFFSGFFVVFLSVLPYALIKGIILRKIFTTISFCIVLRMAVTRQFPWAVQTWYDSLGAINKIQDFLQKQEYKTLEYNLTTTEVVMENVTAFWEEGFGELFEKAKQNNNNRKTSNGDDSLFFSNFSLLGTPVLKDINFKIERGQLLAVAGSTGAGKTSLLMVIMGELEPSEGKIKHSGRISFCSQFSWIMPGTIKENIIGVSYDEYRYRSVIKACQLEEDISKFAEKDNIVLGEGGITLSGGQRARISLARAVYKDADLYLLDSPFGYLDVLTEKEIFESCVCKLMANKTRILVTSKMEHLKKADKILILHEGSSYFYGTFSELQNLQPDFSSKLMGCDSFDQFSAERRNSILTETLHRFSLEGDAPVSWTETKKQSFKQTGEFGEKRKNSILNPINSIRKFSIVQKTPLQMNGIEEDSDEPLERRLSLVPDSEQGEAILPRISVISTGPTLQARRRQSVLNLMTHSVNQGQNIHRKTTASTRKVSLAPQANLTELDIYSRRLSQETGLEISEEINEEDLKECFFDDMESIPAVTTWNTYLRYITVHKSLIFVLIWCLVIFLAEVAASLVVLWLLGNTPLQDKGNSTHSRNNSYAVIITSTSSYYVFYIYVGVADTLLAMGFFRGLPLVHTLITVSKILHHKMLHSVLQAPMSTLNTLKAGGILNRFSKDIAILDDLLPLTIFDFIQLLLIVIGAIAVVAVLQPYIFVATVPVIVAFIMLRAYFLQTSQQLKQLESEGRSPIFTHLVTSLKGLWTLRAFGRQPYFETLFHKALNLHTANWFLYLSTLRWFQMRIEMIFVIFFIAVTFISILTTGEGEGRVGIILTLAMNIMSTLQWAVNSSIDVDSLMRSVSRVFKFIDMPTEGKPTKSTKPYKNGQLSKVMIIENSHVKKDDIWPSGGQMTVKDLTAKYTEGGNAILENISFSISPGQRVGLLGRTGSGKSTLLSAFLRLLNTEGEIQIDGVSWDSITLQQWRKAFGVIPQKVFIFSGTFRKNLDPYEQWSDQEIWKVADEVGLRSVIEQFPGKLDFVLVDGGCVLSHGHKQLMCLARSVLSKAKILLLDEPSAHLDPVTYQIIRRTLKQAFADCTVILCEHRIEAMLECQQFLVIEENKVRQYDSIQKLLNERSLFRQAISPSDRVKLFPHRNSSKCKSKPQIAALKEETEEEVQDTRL

Row | EC50 [µM] | % Activity | Structure (SMILES)
1 | < 10 | ++ (between 25% to 100%) | O=C(Nc1cc(Cl)ccc1Oc1ccccc1)c1c[nH]c2ccccc2c1=O [Compound 292, N-(5-chloro-2-phenoxy-phenyl)-4-oxo-1H-quinoline-3-carboxamide]
2 | 25 to 60 | + (<25%) | COc1cc(C#N)c(NC(=O)c2c[nH]c3ccccc3c2=O)cc1OC [Compound 106, N-(2-cyano-4,5-dimethoxy-phenyl)-4-oxo-1H-quinoline-3-carboxamide]
3 | < 10 | ++ (between 25% to 100%) | CCCOC(=O)NCC(C)(C)c1ccc(NC(=O)c2c[nH]c3ccccc3c2=O)cc1 [Compound 416, [2-methyl-2-[4-[(4-oxo-1H-quinolin-3-yl)carbonylamino]phenyl]-propyl]aminoformic acid propyl ester]
4 | < 10 | ++ (between 25% to 100%) | COc1ccc2c(=O)c(C(=O)Nc3ccc(N4CCC[C@@H]4C)cc3C(F)(F)F)c[nH]c2c1 [Compound 642, (S)-7-methoxy-N-(4-(2-methylpyrrolidin-1-yl)-2-(trifluoromethyl)phenyl)-4-oxo-1,4-dihydroquinoline-3-carboxamide]
5 | 25 to 60 | + (<25%) | O=C(Nc1ccc2c(c1)CCO2)c1c[nH]c2ccccc2c1=O [Compound 467, N-(2,3-dihydrobenzofuran-5-yl)-4-oxo-1H-quinoline-3-carboxamide]
6 | < 10 | ++ (between 25% to 100%) | CC(C)c1ccc(NC(=O)c2c[nH]c3ccccc3c2=O)cc1O [Compound 575, N-(3-hydroxy-4-isopropyl-phenyl)-4-oxo-1H-quinoline-3-carboxamide]
7 | 10 to 25 | ++ (between 25% to 100%) | O=C(Nc1cc(NS(=O)(=O)CCN2CCOCC2)cc(C(F)(F)F)c1)c1c[nH]c2ccccc2c1=O [Compound 272, N-[3-(2-morpholinoethylsulfonylamino)-5-(trifluoromethyl)phenyl]-4-oxo-1H-quinoline-3-carboxamide]
8 | < 10 | ++ (between 25% to 100%) | CC(C)(C)c1c[nH]c2cc(NC(=O)c3c[nH]c4ccc(F)cc4c3=O)ccc12 [Compound 554, 6-fluoro-4-oxo-N-(3-tert-butyl-1H-indol-6-yl)-1H-quinoline-3-carboxamide]
9 | < 10 | ++ (between 25% to 100%) | COC(=O)c1cc(NC(=O)c2c[nH]c3ccccc3c2=O)ccc1C(C)(C)C [Compound 444, 5-[(4-oxo-1H-quinolin-3-yl)carbonylamino]-2-tert-butyl-benzoic acid methyl ester]
10 | 25 to 60 | + (<25%) | Cc1ccc(-c2ccccc2)cc1NC(=O)c1c[nH]c2ccccc2c1=O [Compound 454, N-(2-methyl-5-phenyl-phenyl)-4-oxo-1H-quinoline-3-carboxamide]
11 | < 10 | ++ (between 25% to 100%) | O=C(Nc1cc(O)c(Cl)cc1F)c1c[nH]c2ccccc2c1=O [Compound 695, N-(4-chloro-2-fluoro-5-hydroxy-phenyl)-4-oxo-1H-quinoline-3-carboxamide]
12 | 10 to 25 | + (<25%) | CC(=O)N1CCc2ccc(NC(=O)c3c[nH]c4ccccc4c3=O)cc21 [Compound 233, N-(1-acetylindolin-6-yl)-4-oxo-1H-quinoline-3-carboxamide]
13 | < 10 | ++ (between 25% to 100%) | CC(C)(C)OC(=O)N1CCC2(CCNc3cc(NC(=O)c4c[nH]c5ccccc5c4=O)ccc32)CC1 [Compound 238, 7′-[(4-oxo-1H-quinolin-3-ylcarbonyl)amino]-spiro[piperidine-4,4′(1′H)-quinoline], 2′,3′-dihydro-carboxylic acid tert-butyl ester]

Row | Structure (SMILES) | EC50 [µM] | % Activity
14 | CCOC(=O)c1cc2cc[nH]c2cc1NC(=O)c1c[nH]c2ccccc2c1=O [Compound 188, 6-[(4-oxo-1H-quinolin-3-yl)carbonylamino]-1H-indole-5-carboxylic acid ethyl ester] | < 10 | ++ (between 25% to 100%)
